Values of other authors as cited in PMC11599114 (Viruses, 2024).
Read-outs that look alike come from different tables or passages of the source.

What was measured:
INFVA = test system: INFVA; parameters: method as in AVPdb; conditions: ref AVPdb; for IC50: virus entry; for EC50: fusion
HSV-1 = conditions: HSV-1, Vero
Measles virus(MeV) = conditions: VERO/hSLAM
SARS-CoV-2 [1] = conditions: SARS-CoV-2, Vero
[2] = test system: influenza virus(H1N1,VR-1894); conditions: H1N1 VR-1894, MDKC
[3] = test system: human parainfluenza virus 3 (HPIV3); parameters: method as in ref 16973588; conditions: HPIV3 fusion, HeLa
[4] = test system: human parainfluenza virus 3 (HPIV3); parameters: method as in ref 16973588; conditions: HPIV3 infection, HeLa
influenza A virus(H1N1) = test system: influenza A virus(H1N1); parameters: method as in 2 sources; conditions: A(H1N1), MDCK
HCoV-229E = conditions: Vero
HSV-2 = conditions: HSV-2, Vero
HCoV-OC43 = conditions: HCoV-OC43, Vero
SARS-CoV-2 [5] = test system: SARS-CoV-2; parameters: method as in ref 34328726; conditions: for IC50: SARS-CoV-2 entry, HEK293T/ACE2

AETVESCLAKPHTEN [AVP0967]
IC50 (INFVA): 66 µM

AGDDQGLDKCVPNSKEK [AVP1195]
EC50 (INFVA): 3.7 ± 0.35 pM

AKIXQSLXFIXKSDXLLHNV [DRAVPe00631]
IC50/EC50 (RSV; ref DRAVP): 1.16 ± 0.08 µM

AVASVPRARGKYWWG [AVP0965]
IC50 (INFVA): 44 µM

AVSKVLHLEGEVNKISALLSTNKAVVSLSNGVSVLTSKVLDLDNYIDKQLLPIVNK [AVP1971]
IC50/EC50 (RSV; fusion, ref AVPdb): 1.68 µM

CFVPWFSKFlXRIL [DRAVPe00391]
IC90 (HSV-1): 2.19 µM | IC90 (Measles virus(MeV)): 31.1 µM | IC90 (SARS-CoV-2 [1]): 1.89 µM | IC90 [2]: 5.89 µM

CGGFVPWFSKFlXRIL [DRAVPe00392]
IC90 (HSV-1): 8.21 µM | IC90 (Measles virus(MeV)): 49.9 µM | IC90 (SARS-CoV-2 [1]): 10.2 µM | IC90 [2]: 9.9 µM

DASISQVNEKINQSLAFIRKSDELLHNVNAGKSTT [AVP0142]
IC50/EC50 (RSV; fusion, ref AVPdb): 8 µM

DEFDASISQVNEKINQSLAFIRKSDELLHNVNAGK [AVP0139]
IC50/EC50 (RSV; fusion, ref AVPdb): 12 µM

DFRRLPGAFWQLRQP [AVP0966]
IC50 (INFVA): 52 µM

DITLNNSVALDPIDISIELNKAKSDLEESKEWIRRSNQKLDSIGN [DRAVPe01310]
IC50 [3]: 0.5 µM | IC50 [4]: 0.5 µM

DPLVFPSDEFDASISQVNEKINQSLAFIRKSDELL [AVP0132]
IC50/EC50 (RSV; fusion, ref AVPdb): 8 µM

EAIXQSLXFIXKSDXLLHNV [DRAVPe00632]
IC50/EC50 (RSV; ref DRAVP): 0.60 ± 0.02 µM

EFDASISQVNEKINQSLAFIRKSDELLHNVNAGKS [AVP0140]
IC50/EC50 (RSV; fusion, ref AVPdb): 13 µM

EKAXQSLXFIXKSDXLLHNV [DRAVPe00633]
IC50/EC50 (RSV; ref DRAVP): 1.30 ± 0.89 µM

EKIAQSLXFIRXSDXLLHXV [DRAVPe00629]
IC50/EC50 (RSV; ref DRAVP): 20.41 ± 2.4 µM

EKINQSLAFIRKSDELLHNV [DRAVPe00623]
IC50/EC50 (RSV; ref DRAVP): >50 µM

EKINQSLXFIAXSDXLLHXV [DRAVPe00630]
IC50/EC50 (RSV; ref DRAVP): 175 ± 0.00 µM

EKIXASLXFIXKSDXLLHNV [DRAVPe00634]
IC50/EC50 (RSV; ref DRAVP): 0.28 ± 0.43 µM

EKIXQALXFIXKSDXLLHNV [DRAVPe00635]
IC50/EC50 (RSV; ref DRAVP): 0.66 ± 0.26 µM

EKIXQSAXFIXKSDXLLHNV [DRAVPe00636]
IC50/EC50 (RSV; ref DRAVP): 0.95 ± 0.53 µM

EKIXQSLXAIXKSDXLLHNV [DRAVPe00637]
IC50/EC50 (RSV; ref DRAVP): 1.39 ± 0.10 µM

EKIXQSLXFAXKSDXLLHNV [DRAVPe00638]
IC50/EC50 (RSV; ref DRAVP): 10.44 ± 2.97 µM

EKIXQSLXFIXASDXLLHNV [DRAVPe00639]
IC50/EC50 (RSV; ref DRAVP): 10.93 ± 13.90 µM

EKIXQSLXFIXKADXLLHNV [DRAVPe00640]
IC50/EC50 (RSV; ref DRAVP): 82.04 ± 1.56 µM

EKIXQSLXFIXKSAXLLHNV [DRAVPe00641]
IC50/EC50 (RSV; ref DRAVP): 1.10 ± 0.08 µM

EKIXQSLXFIXKSDXALHNV [DRAVPe00642]
IC50/EC50 (RSV; ref DRAVP): 0.88 ± 0.06 µM

EKIXQSLXFIXKSDXLLANV [DRAVPe00643]
IC50/EC50 (RSV; ref DRAVP): 0.52 ± 0.07 µM

EKIXQSLXFIXKSDXLLHAV [DRAVPe00644]
IC50/EC50 (RSV; ref DRAVP): 2.71 ± 2.93 µM

EKIXQSLXFIXKSDXLLHNA [DRAVPe00645]
IC50/EC50 (RSV; ref DRAVP): 0.60 ± 0.03 µM

EXINXSLXFIRXSDALLHNV [DRAVPe00646]
IC50/EC50 (RSV; ref DRAVP): 1.00 ± 0.03 µM

EXINXSLXFIRXSDELLHNV [DRAVPe00626]
IC50/EC50 (RSV; ref DRAVP): 0.59 ± 0.13 µM

FDASISQVNEKINQSLAFIRKSDELLHNVNAGKST [AVP0143]
IC50/EC50 (RSV; fusion, ref AVPdb): 0.051 µM

FFVIFYRRKK [AVP1808]
IC50 (INFVA): 1.48 µM

FINGRWDSQCHRFSNGAIACA [DRAVPe01800]
IC50 (influenza A virus(H1N1)): 6.6 µg/mL

FPSDEFDASISQVNEKINQSLAFIRKSDELLHNVN [AVP0136]
IC50/EC50 (RSV; fusion, ref AVPdb): 8 µM

FVPWFSKFlGRIL [DRAVPe00377]
IC90 (HSV-1): 18.7 µM | IC90 (HCoV-229E): 30.1 µM | IC90 (HSV-2): 16.7 µM | IC90 (SARS-CoV-2 [1]): 12.1 µM | IC90 (HCoV-OC43): 15 µM

FVPWFSKFlPRIL [DRAVPe00378]
IC90 (HSV-1): 18.8 µM | IC90 (HSV-2): 19.2 µM | IC90 (SARS-CoV-2 [1]): 14 µM | IC90 (HCoV-OC43): 24.1 µM

FVPWFSKFlWRIL [DRAVPe00385]
IC90 (HSV-1): 8.25 µM | IC90 (HCoV-229E): 50 µM | IC90 (HSV-2): 12.5 µM | IC90 (SARS-CoV-2 [1]): 27.7 µM | IC90 (HCoV-OC43): 24.2 µM

FVPWFSKFlXRIL [DRAVPe00380]
IC90 (HSV-1): 15.9 µM | IC90 (HCoV-229E): > 50 µM | IC90 (HSV-2): 19 µM | IC90 (SARS-CoV-2 [1]): 25 µM | IC90 (HCoV-OC43): 27.7 µM

FVPWFSKFlXRILC [DRAVPe00389]
IC90 (HSV-1): 11.1 µM | IC90 (Measles virus(MeV)): > 50 µM | IC90 (SARS-CoV-2 [1]): 12 µM | IC90 [2]: 10 µM

FVPWFSKFlXRILGGC [DRAVPe00390]
IC90 (HSV-1): 48 µM | IC90 (Measles virus(MeV)): > 50 µM | IC90 (SARS-CoV-2 [1]): 50 µM | IC90 [2]: 49.9 µM

FVPWFSKFlwRIL [DRAVPe00386]
IC90 (HSV-1): 7.89 µM | IC90 (HCoV-229E): 50 µM | IC90 (HSV-2): 9.76 µM | IC90 (SARS-CoV-2 [1]): 14.8 µM | IC90 (HCoV-OC43): 17.4 µM

FVPWFSKFlxRIL [DRAVPe00382]
IC90 (HSV-1): 12.8 µM | IC90 (HCoV-229E): > 50 µM | IC90 (HSV-2): 11.9 µM | IC90 (SARS-CoV-2 [1]): 17.4 µM | IC90 (HCoV-OC43): 24.7 µM

FYDPLVFPSDEFDASISQVNEKINQSLAFIRKSDE [AVP0130]
IC50/EC50 (RSV; fusion, ref AVPdb): 20 µM

GAWYKGRARPVSAVA [AVP0963]
IC50 (INFVA): 53 µM

GWWYKGRARAVSAVA [AVP0964]
IC50 (INFVA): 89 µM

GWWYKGRARPVSAVA [AVP0961]
IC50 (INFVA): 3.2 µM

IDISIELNKAKSDLEESKEWIRRSNQKLDSIGNWH [DRAVPe00930]
IC50 [3]: 1.5 µM | IC50 [4]: 0.5 µM

IINFYDPLVFPSDEFDASISQVNEKINQSLAFIRK [AVP0127]
IC50/EC50 (RSV; fusion, ref AVPdb): 91 µM

INFYDPLVFPSDEFDASISQVNEKINQSLAFIRKS [AVP0128]
IC50/EC50 (RSV; fusion, ref AVPdb): 93 µM

IPLRGAFINGRWDSQCHRFS [DRAVPe01801]
IC50 (influenza A virus(H1N1)): 12.9 µg/mL

IYALLENAEDYNLVN [DRAVPe01985]
IC50 (SARS-CoV-2 [5]): 0.009 ± 0.004 µM | inhibition (SARS-CoV-2 [5]; at 25 µM): 100%

LVFPSDEFDASISQVNEKINQSLAFIRKSDELLHN [AVP0134]
IC50/EC50 (RSV; fusion, ref AVPdb): 9 µM

NFYDPLVFPSDEFDASISQVNEKINQSLAFIRKSD [AVP0129]
IC50/EC50 (RSV; fusion, ref AVPdb): >100 µM

NFYDPLVFPSDEFDASISQVNEKINQSLASIRKSDELLHNVNAGK [AVP1972]
IC50/EC50 (RSV; fusion, ref AVPdb): 2.93 µM

NGESSADWAKN [AVP1196]
EC50 (INFVA): 225 ± 1.16 pM

PLVFPSDEFDASISQVNEKINQSLAFIRKSDELLH [AVP0133]
IC50/EC50 (RSV; fusion, ref AVPdb): 30 µM

PSDEFDASISQVNEKINQSLAFIRKSDELLHNVNA [AVP0137]
IC50/EC50 (RSV; fusion, ref AVPdb): 6 µM

QDKHEEDYQMYNKGDKED [DRAVPe01982]
IC50 (SARS-CoV-2 [5]): 0.018 ± 0.002 µM | inhibition (SARS-CoV-2 [5]; at 0.39 µM): 95% | inhibition (SARS-CoV-2 [5]; at 25 µM): 100%

RAVWRHSVATPSHSV [AVP0969]
IC50 (INFVA): > 500 µM

RRKKAAVALLPAVLLALLAP [AVP0554]
IC50 (INFVA): 8 µM

RRKKIFYFFR [AVP1759]
IC50 (INFVA): 0.155 µM

RRKKWLVFFVIFYFFR [AVP1754]
IC50 (INFVA): 4e-05 µM

SDEFDASISQVNEKINQSLAFIRKSDELLHNVNAG [AVP0138]
IC50/EC50 (RSV; fusion, ref AVPdb): 6 µM

SKHSSLDCVLRP [AVP1194]
EC50 (INFVA): 4 ± 0.37 pM

SRDKHEEHEKENDRGQ [DRAVPe01986]
IC50 (SARS-CoV-2 [5]): 0.01 ± 0.005 µM | inhibition (SARS-CoV-2 [5]; at 25 µM): 100%

VALDPIDISIELNKAKSDLEESKEWIRRSNQKLDSD [DRAVPe01313]
IC50 [3]: 0.35 µM | IC50 [4]: 0.5 µM

VALDPIDISIELNKAKSDLEESKEWIRRSNQKLDSI [DRAVPe01311]
IC50 [3]: 0.5 µM | IC50 [4]: 0.5 µM

VANDPIDISIELNKAKSDLEESKEWIRRSNQKLDSI [DRAVPe01312]
IC50 [3]: 0.75 µM | IC50 [4]: 1.1 µM

VFPSDEFDASISQVNEKINQSLAFIRKSDELLHNV [AVP0135]
IC50/EC50 (RSV; fusion, ref AVPdb): 19 µM

WLVFFVIAYFAR [AVP1755]
IC50 (INFVA): 0.00087 µM

WLVFFVIFYFFR [AVP1756]
IC50 (INFVA): 0.0936 µM

WLVFFVIFYFFRRRKK [AVP1753]
IC50 (INFVA): 3e-05 µM

WLVFFVRRKK [AVP1806]
IC50 (INFVA): 0.638 µM

YDPLVFPSDEFDASISQVNEKINQSLAFIRKSDEL [AVP0131]
IC50/EC50 (RSV; fusion, ref AVPdb): 6 µM
